Test results from patent publication US20250034147A1, “MDM2 DEGRADERS AND USES THEREOF” (Kymera Therapeutics, Inc., priority 2021, published 2025).

Experiments:
HiBiT-tagged MDM2 = target: T1, HiBiT-tagged MDM2 (Homo sapiens, UniProt Q00987); experiment: MDM2 HiBit HEK293T degradation; assay type: cell-based; conditions: HEK293T cells stably expressing C-terminally HiBiT-tagged MDM2; 4 h; read-out: MDM2 HiBit HEK293T degradation 4 h: Average external-Abs DC50
T1 construct: expressed in transfected cells
T1 sequence (Q00987 whole entry): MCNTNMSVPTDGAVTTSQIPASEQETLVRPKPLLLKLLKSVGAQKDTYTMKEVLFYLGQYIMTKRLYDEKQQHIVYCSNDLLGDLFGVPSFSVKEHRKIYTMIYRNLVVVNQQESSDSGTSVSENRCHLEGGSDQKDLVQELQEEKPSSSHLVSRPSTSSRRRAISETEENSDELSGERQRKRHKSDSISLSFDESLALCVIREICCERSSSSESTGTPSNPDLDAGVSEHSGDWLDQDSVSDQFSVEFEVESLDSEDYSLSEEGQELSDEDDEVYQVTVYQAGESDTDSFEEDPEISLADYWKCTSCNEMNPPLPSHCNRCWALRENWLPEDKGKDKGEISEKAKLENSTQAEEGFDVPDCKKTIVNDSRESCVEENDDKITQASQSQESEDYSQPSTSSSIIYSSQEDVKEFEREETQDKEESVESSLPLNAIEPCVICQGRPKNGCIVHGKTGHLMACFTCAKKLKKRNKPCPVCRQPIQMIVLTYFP
Protocol: HEK293T cells were grown overnight to 70-80% confluency in a 6-well plate in complete media (DMEM 10% FBS) in a 37° C. incubator with 5% CO2. Cells were transfected with 1 micrograms of C- or N-terminally HiBiT-tagged MDM2 constructs using Fugene 6 transfection reagent (Promega) as per manufacturer protocol. After overnight incubation at 37° C., growth media within the wells was replaced with selection media (DMEM+10% FBS+1 microgram/ml final concentration of Puromycin). Puromycin (selection antibiotic) concentrations required for complete cell kill were determined previously. Cells were monitored for the next 48h-96h to select for positively transfected cells. Surviving colonies were pooled and expanded in selection media. Expanded pools of HEK293T cells stably expressing C- and N-terminally HiBiT-tagged MDM2, were characterized using a MDM2 tool degrader and HaloPROTAC3 as positive control. HEK293T cells expressing C-terminally HiBiT-tagged MDM2 were subsequently used for assessment of degradation potencies for MDM2 degraders.
The letter codes for MDM2 degradation potency (DC50) include: A (<10 nM), B […], C (>100-1000 nM), and D (>1000 nM).

RS411 cells = experiment: Cell Viability CTG Assay; assay type: cell-based; conditions: Homo sapiens, RS4-11, CellTiter Glo (CTG) cell viability, read-out: Average external-IC50
Protocol: Compounds or DMSO 60 nL were stamped to the cell plate as the platemap. RS411 cells were centrifuged at 800 rpm for 5 min, suspended with culture medium, and counted with Countess (Invitrogen). The cell density was adjusted to the recommend information. 30 μL of cell solution (1000 cells/well) was added to the assay plate as the platemap and 30 μL of media was added to column 2 and column 23 as the platemap. The plate was spun down briefly. The final concentration of the compounds started at 10 μM (3 fold dilution and 11 doses) and final DMSO concentration was 0.2%. The plate was spun down briefly and incubated at 37° C., 5% CO2 for 1 day. […] 30 μL CellTiter Glo reagent was added to each well and the plate was centrifuged at 1000 rpm for 30 sec. The plate was shaken for 1 min and centrifuged at 1000 rpm for 30 sec. The plate was incubated at RT for 10 min to stabilize the luminescent signal and the luminescence was read by EnVision.
The letter codes for IC50 indicate the concentration of compound required to affect 50% of cells: A (<0.005 μM), B (0.005-0.05 μM), C (0.05-0.5 μM), and D (>0.5 μM).

Compound | DC50 (HiBiT-tagged MDM2) [nM] | IC50 (RS411 cells) [nM]
CC1(C)CCC2(CC1)NC(C(=O)N[C@H]1CC[C@H](CN3CCN(CCCc4ccn5c(N6CCC(=O)NC6=O)cnc5c4)CC3)CC1)[C@H](c1ccnc(Cl)c1F)[C@]21C(=O)Nc2cc(Cl)ccc21 (some centres unmarked) [I-26] | < 10 | < 5
Cc1ccc2c(c1)NC(=O)[C@]21[C@@H](c2cccc(Cl)c2F)[C@H](C(=O)N[C@H]2CC[C@H](C(=O)N3CCC(c4ccc5c(c4)n(C)c(=O)n5C4CCC(=O)NC4=O)CC3)CC2)NC12CCCCC2 (some centres unmarked) [I-81] | < 10 | < 5
Cn1c(=O)n(C2CCC(=O)NC2=O)c2ccc(C3CCN(CCCN4CCC(NC(=O)[C@@H]5NC6(CCCCC6)[C@@]6(C(=O)Nc7cc(Cl)ccc76)[C@H]5c5cccc(Cl)c5F)CC4)CC3)cc21 (some centres unmarked) [I-39] | < 10 | 5 to 50
CC1(C)CCC2(CC1)NC(C(=O)NC1CCC(CN3CCN(CC#Cc4ccn5c(N6CCC(=O)NC6=O)cnc5c4)CC3)CC1)[C@H](c1ccnc(Cl)c1F)[C@]21C(=O)Nc2cc(Cl)ccc21 (some centres unmarked) [I-50] | < 10 | 5 to 50
Cn1c(=O)n(C2CCC(=O)NC2=O)c2ccc(C(=O)N3CC(OC4CN(C[C@H]5CC[C@H](NC(=O)[C@@H]6NC7(CCCCC7)[C@@]7(C(=O)Nc8cc(Cl)ccc87)[C@H]6c6cccc(Cl)c6F)CC5)C4)C3)cc21 (some centres unmarked) [I-58] | < 10 | 5 to 50
Cn1c(=O)n(C2CCC(=O)NC2=O)c2ccc(N3CC4(CCN(C(=O)[C@H]5CC[C@H](NC(=O)[C@@H]6NC7(CCCCC7)[C@@]7(C(=O)Nc8cc(Cl)ccc87)[C@H]6c6cccc(Cl)c6F)CC5)CC4)C3)cc21 (some centres unmarked) [I-86] | < 10 | < 5
O=C1CCC(n2c(=O)n(CP(=O)(O)O)c3cc(C4CCN(C(=O)[C@H]5CC[C@H](NC(=O)[C@@H]6NC7(CCCCC7)[C@@]7(C(=O)Nc8cc(Cl)ccc87)[C@H]6c6cccc(Cl)c6F)CC5)CC4)ccc32)C(=O)N1 (some centres unmarked) [I-35] | 100 to 1000 | 50 to 500
Cn1c(=O)n(C2CCC(=O)NC2=O)c2ccc(C3=CCN(C[C@H]4CC[C@H](NC(=O)[C@@H]5NC6(CCCCC6)[C@@]6(C(=O)Nc7cc(Cl)ccc76)[C@H]5c5cccc(Cl)c5F)CC4)CC3)cc21 (some centres unmarked) [I-5] | < 10 | < 5
Cn1c(=O)n([C@@H]2CCC(=O)NC2=O)c2ccc(C3CCN(C(=O)[C@H]4CC[C@H](NC(=O)[C@@H]5NC6(CCCCC6)[C@@]6(C(=O)Nc7cc(Cl)ccc76)[C@H]5c5cccc(Cl)c5F)CC4)CC3)cc21 (single isomer, unassigned) [I-104] | < 10 | < 5
CN1[C@@H](C(=O)N[C@H]2CC[C@H](CN3CC4(CCN(CCc5ccc6c(c5)n(C)c(=O)n6C5CCC(=O)NC5=O)CC4)C3)CC2)[C@H](c2cccc(Cl)c2F)[C@]2(C(=O)Nc3cc(Cl)ccc32)C12CCCCC2 (some centres unmarked) [I-75] | < 10 | 5 to 50
Cc1ccc2c(c1)NC(=O)[C@]21[C@@H](c2cccc(Cl)c2F)[C@H](C(=O)N[C@H]2CC[C@H](C(=O)N3CCN(CCCc4ccc5c(c4)n(C)c(=O)n5C4CCC(=O)NC4=O)CC3)CC2)NC12CCCCC2 (some centres unmarked) [I-57] | < 10 | < 5
COc1cc2c(cc1OC(C)C)[C@H](c1ccc(Cl)cc1)N(c1ccc(N(C)C[C@H]3CC[C@H](N(CCC(=O)O)C(=O)CCCCc4ccc5c(c4)n(C)c(=O)n5C4CCC(=O)NC4=O)CC3)cc1)C(=O)C2 (some centres unmarked) [I-12] | 100 to 1000 | > 500
Cn1c(=O)n(C2CCC(=O)NC2=O)c2ccc(C3CCN(C[C@@H]4CC[C@@H](NC(=O)[C@@H]5NC6(CCC(C)(C)CC6)[C@@]6(C(=O)Nc7cc(Cl)ccc76)[C@H]5c5ccnc(Cl)c5F)CO4)CC3)cc21 (some centres unmarked) [I-76] | < 10 | < 5
COc1cc2c(cc1OC(C)C)[C@H](c1ccc(Cl)cc1)N(c1ccc(N(C)CCC3CCN(CCCCC#Cc4cccn5c(N6CCC(=O)NC6=O)cnc45)CC3)cc1)C(=O)C2 [I-22] | > 1000 | 50 to 500
Cn1c(=O)n(C2CCC(=O)NC2=O)c2ccc(N3CCN(CC4CCN(C[C@H]5CC[C@H](NC(=O)[C@@H]6NC7(CCCCC7)[C@@]7(C(=O)Nc8cc(Cl)ccc87)[C@H]6c6cccc(Cl)c6F)CC5)CC4)CC3)cc21 (some centres unmarked) [I-70] | < 10 | < 5
COc1cc2c(cc1OC(C)C)C(c1ccc(Cl)cc1)N(C1CCC(N(C)CC3CCN(CCCCCCc4ccc5c(c4)n(C)c(=O)n5C4CCC(=O)NC4=O)CC3)CC1)C(=O)C2 (centres unmarked) [I-61] | > 1000 | > 500
Cn1c(=O)n(C2CCC(=O)NC2=O)c2ccc(CCCN3CCN(C[C@H]4CC[C@H](NC(=O)[C@@H]5NC6(CCC(C)(C)CC6)[C@@]6(C(=O)Nc7cc(Cl)ccc76)[C@H]5c5ccnc(Cl)c5F)CC4)C(=O)C3)cc21 (some centres unmarked) [I-56] | < 10 | < 5
Cn1c(=O)n(C2CCC(=O)NC2=O)c2ccc(C#CC3CCN(C[C@H]4CC[C@H](NC(=O)[C@@H]5NC6(CCCCC6)[C@@]6(C(=O)Nc7cc(Cl)ccc76)[C@H]5c5cccc(Cl)c5F)CC4)C(=O)C3)cc21 (some centres unmarked) [I-46] | < 10 | 5 to 50
COc1cc2c(cc1OC(C)C)[C@H](c1ccc(Cl)cc1)N(c1ccc(N(C)C[C@H]3CC[C@H](N4CCC(c5ccc6c(c5)n(C)c(=O)n6C5CCC(=O)NC5=O)CC4)CC3)cc1)C(=O)C2 (some centres unmarked) [I-73] | < 10 | < 5

Now from value to compound:

DC50 (HiBiT-tagged MDM2) [nM] | IC50 (RS411 cells) [nM] | Compound
< 10 | < 5 | Cn1c(=O)n(C2CCC(=O)NC2=O)c2ccc(N3CC4(CN(C[C@H]5CC[C@H](NC(=O)[C@@H]6NC7(CCCCC7)[C@@]7(C(=O)Nc8cc(Cl)ccc87)[C@H]6c6cccc(Cl)c6F)CC5)C4)C3)cc21 (some centres unmarked) [I-88]
< 10 | 5 to 50 | Cn1c(=O)n(C2CCC(=O)NC2=O)c2ccc(C#CCC3(C(=O)O)CCN(C[C@H]4CC[C@H](NC(=O)[C@@H]5NC6(CCCCC6)[C@@]6(C(=O)Nc7cc(Cl)ccc76)[C@H]5c5cccc(Cl)c5F)CC4)CC3)cc21 (some centres unmarked) [I-8]
100 to 1000 | 5 to 50 | Cn1c(=O)n(C2CCC(=O)NC2=O)c2ccc(CN3CCC(NC(=O)[C@@H]4NC5(CCCCC5)[C@@]5(C(=O)Nc6cc(Cl)ccc65)[C@H]4c4cccc(Cl)c4F)CC3)cc21 (some centres unmarked) [I-98]
10 to 100 | 5 to 50 | COc1cc2c(cc1OC(C)C)[C@H](c1ccc(Cl)cc1)N(c1ccc(N(C)C[C@H]3CC[C@H](N4C[C@@H]5C[C@H]4CN5CCc4ccc5c(c4)n(C)c(=O)n5C4CCC(=O)NC4=O)CC3)cc1)C(=O)C2 (some centres unmarked) [I-65]
10 to 100 | 5 to 50 | CC(C)[C@@H](CS(=O)(=O)C(C)C)N1C(=O)[C@@](C)(CC(=O)N[C@H]2CC[C@H](CN3CCN(CCCc4ccc5c(c4)n(C)c(=O)n5C4CCC(=O)NC4=O)CC3)CC2)C[C@H](c2cccc(Cl)c2)[C@H]1c1ccc(Cl)cc1 (some centres unmarked) [I-64]
< 10 | 50 to 500 | Cn1c(=O)n(C2CCC(=O)NC2=O)c2ccc(C3CN(Cc4ccc(NC(=O)[C@@H]5NC6(CCCCC6)[C@@]6(C(=O)Nc7cc(Cl)ccc76)[C@H]5c5cccc(Cl)c5F)cc4)C3)cc21 (some centres unmarked) [I-34]
< 10 | < 5 | CN1[C@@H](C(=O)N[C@H]2CC[C@H](CN3CCC(c4ccc5c(c4)n(C)c(=O)n5C4CCC(=O)NC4=O)CC3)CC2)[C@H](c2ccnc(Cl)c2F)[C@]2(C(=O)Nc3cc(Cl)ccc32)C12CCC(C)(C)CC2 (some centres unmarked) [I-14]
< 10 | 5 to 50 | Cn1c(=O)n(C2CCC(=O)NC2=O)c2ccc([C@@H]3CCN(C[C@H]4CC[C@H](NC(=O)[C@@H]5NC6(CCCCC6)[C@@]6(C(=O)Nc7cc(Cl)ccc76)[C@H]5c5cccc(Cl)c5F)CC4)C[C@@H]3F)cc21 (some centres unmarked) [I-85]
< 10 | < 5 | COc1cc2c(cc1OC(C)C)[C@H](c1ccc(Cl)cc1)N(c1ccc(N(C)C[C@H]3CC[C@H](N4CCN(Cc5ccc6c(c5)n(C)c(=O)n6C5CCC(=O)NC5=O)CC4)CC3)cc1)C(=O)C2 (some centres unmarked) [I-60]
10 to 100 | < 5 | Cn1c(=O)n(C2CCC(=O)NC2=O)c2ccc(C#CCC3(C(=O)O)CCN(C(=O)[C@H]4CC[C@H](NC(=O)[C@@H]5NC6(CCCCC6)[C@@]6(C(=O)Nc7cc(Cl)ccc76)[C@H]5c5cccc(Cl)c5F)CC4)CC3)cc21 (some centres unmarked) [I-44]
< 10 | < 5 | Cn1c(=O)n(C2CCC(=O)NC2=O)c2ccc(CCN3CCN(C(=O)[C@@H]4CC[C@@H](NC(=O)[C@@H]5NC6(CCCCC6)[C@@]6(C(=O)Nc7cc(Cl)ccc76)[C@H]5c5cccc(Cl)c5F)CO4)CC3)cc21 (some centres unmarked) [I-41]
< 10 | 5 to 50 | Cn1c(=O)n(C2CCC(=O)NC2=O)c2ccc(CCN3CCC(NC(=O)[C@@H]4NC5(CCCCC5)[C@@]5(C(=O)Nc6cc(Cl)ccc65)[C@H]4c4cccc(Cl)c4F)CC3)cc21 (some centres unmarked) [I-97]
